Measured values published in EP0211457A2, “Novel (4-substituted-piperazinyl)pyridazines” (JANSSEN PHARMACEUTICA N.V., priority 1985, dated 1987).
Counter-ions that a name gives are not always drawn.

Key:
Male Wistar rats = test: Tail Withdrawal Test; assay type: in vivo; conditions: Rattus norvegicus, iv, tail immersed in water at 55°C, dose suppressing the tail withdrawal response for more than 10 seconds in 50% of the animals, read-out: Tail Witdrawal Test ED50 in mg/kg body weight
Procedure: Male Wistar rats weighing 200g ± 5g were fasted overnight, water being available at libitum. Aqueous solutions, made isotonic with sodium chloride, of the test compounds at various concentrations were administered to the test animals intraveneously (i.v.). The thus treated rats were put into individual restraining cages. At various time periods after administration, the lower 5 cm portion of the tail was immersed into a cup filled with water at a constant temperature of 55°C. The typical tail withdrawal response was evaluated during a 10 sec. period after the immersion. ED₅₀ values in mg/kg body weight were determined as that dose of the test compound capable of suppressing in 50% of the tested animals the typical tail withdrawal response during a time period exceeding 10 seconds. Said ED₅₀ values for a number of compounds having the formula (I) and the pharma- ceutically acceptable acid-addition salts thereof are gathered in Table 1.

Wistar rats = test: Acetic Acid-Induced Writhing in Rats Test; assay type: in vivo; conditions: Rattus norvegicus, ip, 0.5 ml 1% acetic acid i.p., compound given 15 min after acetic acid, writhes counted 60-75 min after acetic acid, dose reducing to less than 16 writhes in 50% of the animals, read-out: Writhing in Rats Test ED50 in mg/kg body weight
Procedure: The Acetic Acid-Induced Writhing in Rats Test is known to be a useful tool for the evaluation of the analgesic properties of given test compound (see in connection herewith Drug Research, 25, 1505-1509 (1975)).
Wistar rats weighing about 100g were used throughout. They were injected i.p. with 0.5 ml of a 1% aqueous solution of acetic acid and placed in individual glass containers for observation. […] 5 Min. later (15 min. after the acetic acid treatment) the test compound was administered. […] The lowest effective dose in 50% of the test animals (ED₅₀) was determined as that dose in mg/kg body weight capable of reducing the number of writhes during the 15 minutes observation period to less than 16 writhes in 50% of the tested animals.
Said ED₅₀ values for a number of compounds having the formula (I) and the pharmaceutically acceptable acid-addition salts thereof are gathered in Table 1.

Row | Compound | ED50 (Male Wistar rats) [mg/kg] | ED50 (Wistar rats) [mg/kg]
1 | Clc1ccc(N2CCN(C/C=C/c3ccccc3)CC2)nn1 [compound 1, (E)-3-chloro-6-[4-(3-phenyl-2-propenyl)-1-piperazinyl]pyridazine] | 20 | 5
2 | CC1CN(C/C=C/c2ccccc2)CCN1c1ccc(Cl)nn1 (centres unmarked) [compound 2, (E)-3-chloro-6-[2-methyl-4-(3-phenyl-2-propenyl)-1-piperazinyl]pyridazine monohydrochloride.hemihydrate] | 10 | 5
3 | Brc1ccc(N2CCN(C/C=C/c3ccccc3)CC2)nn1 [compound 3, (E)-3-bromo-6-[4-(3-phenyl-2-propenyl)-1-piperazinyl]pyridazine] |  | 10
4 | COc1ccc(N2CCN(C/C=C/c3ccccc3)CC2)nn1 [compound 4, (E)-3-methoxy-6-[4-(3-phenyl-2-propenyl)-1-piperazinyl]pyridazine] | 40 | 5
5 | Clc1ccc(/C=C/CN2CCN(c3ccc(Cl)nn3)CC2)cc1 [compound 5, (E)-3-chloro-6-[4-[3-(4-chlorophenyl)-2-propenyl]-1-piperazinyl]pyridazine] |  | 40
6 | Clc1ccc(N2CCCN(C/C=C/c3ccccc3)CC2)nn1 [compound 7] | 40 | 20
7 | C(=C\c1ccccc1)/CN1CCN(c2cccnn2)CC1 [compound 8] |  | 2.5
8 | COc1ccc(N2CCN(C/C=C/c3ccc(F)cc3)CC2)nn1 [compound 9] |  | 10
9 | Fc1ccc(/C=C/CN2CCN(c3ccc(Cl)nn3)CC2)cc1 [compound 10] |  | 20
10 | Fc1ccc(/C=C/CN2CCN(c3cccnn3)CC2)cc1 [compound 11] |  | 40
11 | Clc1ccc(N2CCN(C/C=C/c3cccs3)CC2)nn1 [compound 12] |  | 10
12 | Cc1ccc(/C=C/CN2CCN(c3ccc(Cl)nn3)CC2)cc1 [compound 13] |  | 40
13 | COc1ccc(/C=C/CN2CCN(c3ccc(Cl)nn3)CC2)cc1 [compound 14] |  | 40
14 | COc1ccc(/C=C/CN2CCN(c3cccnn3)CC2)cc1 [compound 18] |  | 40
15 | C(=C\c1ccccc1)/CN1CCCN(c2ccc(-c3ccccc3)nn2)CC1 [compound 19] |  | 10
16 | Cl.Cl.Clc1ccc(N2CCN(C/C=C/c3ccccc3)CC2)nn1 [compound 37, (E)-3-chloro-6-[4-(3-phenyl-2-propenyl)-1-piperazinyl]pyridazine dihydrochloride] | < 40 | 10
17 | [O-][N+]1(C/C=C/c2ccccc2)CCN(c2ccc(Cl)nn2)CC1 [compound 38, (E)-3-chloro-6-[4-(3-phenyl-2-propenyl)-1-piperazinyl]pyridazine, 4-oxide] | ≥ 20 | 10
